The source of these data is ChEMBL document CHEMBL1124834, “5-HT1 and 5-HT2 binding profiles of the serotonergic agents alpha-methylserotonin and 2-methylserotonin” (J Med Chem, 1990).

pKi: −log10 of the molar value.

Test [1] concerns the target 5-hydroxytryptamine receptor 1B (Rattus norvegicus, UniProt P28564).
In test [2] the target is T1, 5-hydroxytryptamine receptor 2C (Rattus norvegicus, UniProt P08909).
T1 sequence (P08909 whole entry): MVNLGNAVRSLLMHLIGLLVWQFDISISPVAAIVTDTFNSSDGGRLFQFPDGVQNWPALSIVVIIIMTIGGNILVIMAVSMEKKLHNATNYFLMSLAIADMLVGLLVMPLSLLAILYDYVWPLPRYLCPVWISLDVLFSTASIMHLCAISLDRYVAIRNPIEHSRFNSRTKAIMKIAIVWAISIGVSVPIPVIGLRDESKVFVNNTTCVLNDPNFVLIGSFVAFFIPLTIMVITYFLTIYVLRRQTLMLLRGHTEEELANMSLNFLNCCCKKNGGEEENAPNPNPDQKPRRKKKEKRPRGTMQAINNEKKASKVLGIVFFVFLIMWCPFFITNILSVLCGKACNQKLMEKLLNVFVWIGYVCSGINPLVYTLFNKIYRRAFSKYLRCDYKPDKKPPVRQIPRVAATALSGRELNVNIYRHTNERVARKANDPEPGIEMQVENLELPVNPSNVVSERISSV

Test [3] concerns the target T2, 5-hydroxytryptamine receptor 1A (Rattus norvegicus, UniProt P19327).
T2 sequence (P19327 whole entry): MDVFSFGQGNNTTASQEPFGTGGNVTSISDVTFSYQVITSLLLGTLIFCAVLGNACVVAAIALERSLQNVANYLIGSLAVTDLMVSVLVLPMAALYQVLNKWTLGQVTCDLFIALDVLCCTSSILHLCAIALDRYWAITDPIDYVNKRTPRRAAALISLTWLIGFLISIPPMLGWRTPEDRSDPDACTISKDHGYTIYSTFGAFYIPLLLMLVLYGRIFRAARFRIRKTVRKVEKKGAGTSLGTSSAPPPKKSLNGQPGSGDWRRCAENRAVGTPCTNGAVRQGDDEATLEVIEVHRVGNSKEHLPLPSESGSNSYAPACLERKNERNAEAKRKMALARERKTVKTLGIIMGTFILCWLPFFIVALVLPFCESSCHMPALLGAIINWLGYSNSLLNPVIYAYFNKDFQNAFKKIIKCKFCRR

For test [4], the target named is Serotonin 2 (5-HT2) receptor (Rattus norvegicus, UniProt P30994+P08909+P14842).
For test [5], the target named is 5-hydroxytryptamine receptor 1E (Homo sapiens, UniProt P28566).
Chain of 5-hydroxytryptamine receptor 1E (P28566 whole entry): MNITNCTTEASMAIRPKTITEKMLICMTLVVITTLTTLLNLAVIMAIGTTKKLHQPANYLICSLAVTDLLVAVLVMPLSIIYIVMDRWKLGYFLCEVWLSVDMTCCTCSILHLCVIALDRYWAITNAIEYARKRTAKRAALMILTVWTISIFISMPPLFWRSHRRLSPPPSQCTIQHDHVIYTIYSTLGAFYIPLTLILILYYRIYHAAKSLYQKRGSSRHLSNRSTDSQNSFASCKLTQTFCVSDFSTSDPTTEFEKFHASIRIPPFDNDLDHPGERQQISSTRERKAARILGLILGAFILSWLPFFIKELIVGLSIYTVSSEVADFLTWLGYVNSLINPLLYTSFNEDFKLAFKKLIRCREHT

Chain of 5-hydroxytryptamine receptor 1B (P28564 whole entry): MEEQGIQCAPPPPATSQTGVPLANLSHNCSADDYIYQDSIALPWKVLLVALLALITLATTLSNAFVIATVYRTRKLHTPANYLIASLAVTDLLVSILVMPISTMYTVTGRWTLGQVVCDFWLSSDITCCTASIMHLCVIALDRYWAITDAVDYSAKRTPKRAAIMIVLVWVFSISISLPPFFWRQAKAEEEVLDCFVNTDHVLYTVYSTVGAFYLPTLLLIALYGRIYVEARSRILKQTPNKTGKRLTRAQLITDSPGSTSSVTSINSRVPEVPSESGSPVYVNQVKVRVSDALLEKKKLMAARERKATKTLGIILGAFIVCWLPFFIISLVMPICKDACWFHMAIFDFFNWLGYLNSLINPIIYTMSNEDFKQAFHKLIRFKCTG

On to `COc1ccc2[nH]c(C)c(CCN)c2c1`, for which the pKi (as a rule, the Ki on a negative log10 scale, so that one unit is a factor of ten) in test [1] was 6.10; in test [2] it was 6.16; in test [3], 5.89; in test [5] it was less than 5.00. Moreover, the Ki (commonly a measure of affinity in units of concentration, obtained from inhibition or displacement) in test [4] was greater than 10000 nM.
Regarding `Cc1[nH]c2ccc(O)cc2c1CCN`, the pKi in test [1] was 6.28; in test [2] it was 6.19; in test [3] it was 5.92; in test [5], less than 5.00. This molecule had a Ki in test [4] greater than 10000 nM.
